Results from patent US20260325533A1, “CDK INHIBITOR COMPOUNDS” (ALEKSIA THERAPEUTICS, INC., priority 2023, published 2026).
Read-outs that look alike come from different tables or passages of the source. Each block holds one compound with its values, some of them ahead of it.

Columns and labels:
Type in all cases: biochemical
CDK2/CCNE1 = CDK2/CCNE1 (Homo sapiens, UniProt P24941); assay: CDK2 homogeneous time-resolved fluorescence (HTRF) kinase assay; details: CDK2/CCNE
Method in brief: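 TR-FRET read-out (665 nm, or 665/615 ratio) of Eu-antibody detection of phospho-4E-BP1 (Thr37/46) ULight peptide. Enzyme 3 nM, ATP 1 mM, peptide 50 nM, 1% DMSO; 60 min reaction at 23 °C after 20 min compound preincubation. IC50 from 11-point half-log titrations, top typically 10 μM.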

CDK1/CCNB1 = CDK1/CCNB1 (Homo sapiens, UniProt P06493); assay: CDK1 homogeneous time-resolved fluorescence (HTRF) kinase assay; details: CDK1/CCNB
Sequence of CDK1/CCNB1 (P06493 whole entry): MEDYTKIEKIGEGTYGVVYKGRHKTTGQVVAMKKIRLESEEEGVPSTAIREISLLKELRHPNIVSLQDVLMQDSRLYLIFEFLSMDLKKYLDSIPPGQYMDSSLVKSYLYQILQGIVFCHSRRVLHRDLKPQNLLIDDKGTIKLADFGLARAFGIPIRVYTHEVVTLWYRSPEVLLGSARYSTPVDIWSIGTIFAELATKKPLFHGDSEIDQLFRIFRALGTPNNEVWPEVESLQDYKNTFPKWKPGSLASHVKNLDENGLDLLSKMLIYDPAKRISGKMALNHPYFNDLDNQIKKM
Sequence of CDK1/CCNB1 (P14635 whole entry partner): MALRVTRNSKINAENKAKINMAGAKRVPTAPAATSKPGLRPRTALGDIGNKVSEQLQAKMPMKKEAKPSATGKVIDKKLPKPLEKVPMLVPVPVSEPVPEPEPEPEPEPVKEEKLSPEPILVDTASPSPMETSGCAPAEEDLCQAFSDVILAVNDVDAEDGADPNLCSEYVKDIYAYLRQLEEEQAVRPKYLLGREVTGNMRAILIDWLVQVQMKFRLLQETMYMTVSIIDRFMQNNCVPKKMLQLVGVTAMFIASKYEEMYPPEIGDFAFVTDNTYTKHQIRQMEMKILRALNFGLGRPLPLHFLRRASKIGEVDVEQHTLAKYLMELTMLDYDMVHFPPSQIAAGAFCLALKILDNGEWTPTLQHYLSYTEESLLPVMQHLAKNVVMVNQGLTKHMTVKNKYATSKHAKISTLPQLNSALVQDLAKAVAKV
Method in brief: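 Kinase activity is measured as Lance signal (665 nm, or 665/615 nm ratio) from europium-labelled anti-phospho-Thr37/46 antibody binding ULight-4E-BP1 peptide. Reactions contain 0.5 nM enzyme, 1 mM ATP, 1% DMSO and run 60 min at 23 °C before EDTA quench.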

CDK4/CCND3 = CDK4/CCND3 (Homo sapiens, UniProt P11802); assay: CDK4 homogeneous time-resolved fluorescence (HTRF) kinase assay; details: CDK4/CCND
Sequence of CDK4/CCND3 (P11802 whole entry): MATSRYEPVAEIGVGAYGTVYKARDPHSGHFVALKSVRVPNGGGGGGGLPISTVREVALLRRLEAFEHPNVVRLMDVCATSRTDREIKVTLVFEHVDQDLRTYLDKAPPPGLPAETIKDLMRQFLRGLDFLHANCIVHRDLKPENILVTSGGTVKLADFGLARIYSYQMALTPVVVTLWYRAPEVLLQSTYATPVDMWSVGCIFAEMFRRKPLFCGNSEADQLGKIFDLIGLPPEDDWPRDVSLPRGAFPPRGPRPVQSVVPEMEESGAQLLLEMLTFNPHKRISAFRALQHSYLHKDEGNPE
Sequence of CDK4/CCND3 (P30281 whole entry partner): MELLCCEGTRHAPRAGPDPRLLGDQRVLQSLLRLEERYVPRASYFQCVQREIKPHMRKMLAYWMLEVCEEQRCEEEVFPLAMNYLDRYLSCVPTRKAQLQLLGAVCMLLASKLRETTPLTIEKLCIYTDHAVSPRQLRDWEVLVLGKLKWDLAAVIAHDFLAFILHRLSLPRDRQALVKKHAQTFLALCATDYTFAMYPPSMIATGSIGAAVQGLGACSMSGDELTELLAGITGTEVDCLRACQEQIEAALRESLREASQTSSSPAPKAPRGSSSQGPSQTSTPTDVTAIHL
Method in brief: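 IC50s derive from Lance 665 nm or 665/615 nm signals in 11-point, half-log dose series (top 10 μM, 1% DMSO). The enzyme, 1.5 nM CDK4/CCND3, phosphorylates 50 nM ULight-4E-BP1 peptide with 1 mM ATP over 60 min at 23 °C.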

CDK6/CCND1 = CDK6/CCND1 (Homo sapiens, UniProt Q00534); assay: CDK6 homogeneous time-resolved fluorescence (HTRF) kinase assay; details: CDK6/CCND
Sequence of CDK6/CCND1 (Q00534 whole entry): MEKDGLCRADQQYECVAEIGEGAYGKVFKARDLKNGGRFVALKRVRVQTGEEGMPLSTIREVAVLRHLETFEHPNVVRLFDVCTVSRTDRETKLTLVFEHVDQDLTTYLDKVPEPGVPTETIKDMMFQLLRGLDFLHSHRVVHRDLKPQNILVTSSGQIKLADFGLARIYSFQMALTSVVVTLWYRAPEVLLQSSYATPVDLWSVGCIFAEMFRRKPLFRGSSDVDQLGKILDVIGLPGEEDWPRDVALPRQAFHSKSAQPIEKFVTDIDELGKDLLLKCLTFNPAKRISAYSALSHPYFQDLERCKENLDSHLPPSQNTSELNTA
Sequence of CDK6/CCND1 (P24385 whole entry partner): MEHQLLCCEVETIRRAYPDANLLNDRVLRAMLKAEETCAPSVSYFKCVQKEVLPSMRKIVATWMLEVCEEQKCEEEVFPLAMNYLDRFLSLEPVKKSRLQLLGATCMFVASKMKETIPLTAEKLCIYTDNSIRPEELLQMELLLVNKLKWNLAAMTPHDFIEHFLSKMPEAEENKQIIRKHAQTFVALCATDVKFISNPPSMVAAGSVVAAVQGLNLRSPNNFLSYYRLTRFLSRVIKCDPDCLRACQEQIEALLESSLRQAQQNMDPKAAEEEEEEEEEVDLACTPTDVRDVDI
Method in brief: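 Assay conditions: HEPES buffer containing 10 mM MgCl2, 1 mM EGTA, 2 mM DTT, 0.01% Tween 20; 1 nM CDK6/CCND1, 50 nM peptide substrate, 1 mM ATP. Detection after 60 min reaction used 2 nM europium antibody with 340 nm excitation. Potency fitted from half-log series, 11 points.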

[1] = x = IC50 <25 nM, read-out: CDK2/CCNE IC50 (<25 nM)
[2] = x = IC50 >250 nM, read-out: CDK1/CCNB IC50 (>250 nM column)
[3] = x = IC50 >250 nM, read-out: CDK4/CCND IC50 (>250 nM column)
[4] = x = IC50 >250 nM, read-out: CDK6/CCND IC50 (>250 nM column)
[5] = 25-250 nM, read-out: CDK2/CCNE IC50, 25-250 nM
[6] = >250 nM, read-out: CDK1/CCNB IC50 >250 nM
[7] = >250 nM, read-out: CDK4/CCND IC50, >250 nM
[8] = >250 nM, 1 mM ATP, read-out: CDK6/CCND IC50, >250 nM
[9] = <25 nM, read-out: CDK2/CCNE IC50 <25 nM
[10] = <25 nM, read-out: CDK2/CCNE IC50, <25 nM
[11] = 25-250 nM, read-out: CDK4/CCND IC50, 25-250 nM
[12] = 25-250 nM, 1 mM ATP, read-out: CDK6/CCND IC50, 25-250 nM
[13] = >250 nM marked x, read-out: CDK1/CCNB IC50 >250 nM
[14] = >250 nM marked x, read-out: CDK4/CCND IC50 >250 nM
[15] = >250 nM marked x, read-out: CDK6/CCND IC50 >250 nM
[16] = x = IC50 25-250 nM, read-out: CDK2/CCNE IC50 (25-250 nM)

IC50 (CDK2/CCNE1; [1]): < 25 nM
IC50 (CDK1/CCNB1; [2]): > 250 nM
IC50 (CDK4/CCND3; [3]): > 250 nM
IC50 (CDK6/CCND1; [4]): > 250 nM
SMILES: CC1(C)C(=O)Nc2cc(C#Cc3nccc4cnc(Nc5ccc(S(C)(=O)=O)cc5Cl)cc34)ccc21 [Ex 423, 6-((7-((2-chloro-4-(methylsulfonyl)phenyl)amino)-2,6-naphthyridin-1-yl)ethynyl)-3,3-dimethylindolin-2-one]

IC50 (CDK2/CCNE1; [5]): 25 to 250 nM
IC50 (CDK1/CCNB1; [6]): > 250 nM
IC50 (CDK4/CCND3; [7]): > 250 nM
IC50 (CDK6/CCND1; [8]): > 250 nM
SMILES: CCN(c1ncccn1)S(=O)(=O)c1ccc(Nc2cc3c(-c4ccc5c(cnn5CC(O)(C(F)(F)F)C(F)(F)F)c4C)nccc3cn2)cc1 [Ex 731, N-ethyl-4-((5-(4-methyl-1-(3,3,3-trifluoro-2-hydroxy-2-(trifluoromethyl)propyl)-1H-indazol-5-yl)-2,6-naphthyridin-3-yl)amino)-N-(pyrimidin-2-yl)benzenesulfonamide]

IC50 (CDK2/CCNE1; [5]): 25 to 250 nM
IC50 (CDK1/CCNB1; [6]): > 250 nM
IC50 (CDK4/CCND3; [7]): > 250 nM
IC50 (CDK6/CCND1; [8]): > 250 nM
SMILES: CC#Cc1nccc2cnc(Nc3ccc(S(=O)(=O)Nc4nccc(N5CCN(C)CC5)n4)cc3)cc12 [Example 877, N-(4-(4-methylpiperazin-1-yl)pyrimidin-2-yl)-4-((5-(prop-1-yn-1-yl)-2,6-naphthyridin-3-yl)amino)benzenesulfonamide]

IC50 (CDK2/CCNE1; [9]): < 25 nM
IC50 (CDK1/CCNB1; 25-250 nM marked x, read-out: CDK1/CCNB IC50 25-250 nM): 25 to 250 nM
IC50 (CDK4/CCND3; 25-250 nM marked x, read-out: CDK4/CCND IC50 25-250 nM): 25 to 250 nM
IC50 (CDK6/CCND1; <25 nM, read-out: CDK6/CCND IC50 <25 nM): < 25 nM
SMILES: Oc1ccc(Nc2cc3c(C4=CCCCC4)nccc3cn2)cc1 [Ex 99, 4-((5-(cyclohex-1-en-1-yl)-2,6-naphthyridin-3-yl)amino)phenol]

IC50 (CDK2/CCNE1; [5]): 25 to 250 nM
IC50 (CDK1/CCNB1; [6]): > 250 nM
IC50 (CDK4/CCND3; [7]): > 250 nM
IC50 (CDK6/CCND1; [8]): > 250 nM
SMILES: Cc1c(-c2nccc3cnc(Nc4ccc(S(C)(=O)=O)c(N5CCN(CCO)CC5)c4)cc23)ccc2c1cnn2CC(C)(C)O [Ex 919, 1-(5-(7-((3-(4-(2-hydroxyethyl)piperazin-1-yl)-4-(methylsulfonyl)phenyl)amino)-2,6-naphthyridin-1-yl)-4-methyl-1H-indazol-1-yl)-2-methylpropan-2-ol]

IC50 (CDK2/CCNE1; [10]): < 25 nM
IC50 (CDK1/CCNB1; [6]): > 250 nM
IC50 (CDK4/CCND3; [11]): 25 to 250 nM
IC50 (CDK6/CCND1; [12]): 25 to 250 nM
SMILES: Cc1c(-c2nccc3cnc(Nc4ccc(S(=O)(=O)Nc5ncc(N6CCN(C)CC6)cn5)cc4)cc23)ccc2c1cnn2CC(C)(C)O [Ex 849, 4-((5-(1-(2-hydroxy-2-methylpropyl)-4-methyl-1H-indazol-5-yl)-2,6-naphthyridin-3-yl)amino)-N-(5-(4-methylpiperazin-1-yl)pyrimidin-2-yl)benzenesulfonamide]

IC50 (CDK2/CCNE1; [9]): < 25 nM
IC50 (CDK1/CCNB1; [13]): > 250 nM
IC50 (CDK4/CCND3; [14]): > 250 nM
IC50 (CDK6/CCND1; [15]): > 250 nM
SMILES: COc1cc(S(=N)(=O)C2CC2)ccc1Nc1cc2c(C#Cc3ccc4c(c3)NC(=O)C43CCC3)nccc2cn1 (single isomer, unassigned) [Example 296, 6′-((7-((4-(cyclopropanesulfonimidoyl)-2-methoxyphenyl)amino)-2,6-naphthyridin-1-yl)ethynyl)spiro[cyclobutane-1,3′-indolin]-2′-one]

IC50 (CDK2/CCNE1; [16]): 25 to 250 nM
IC50 (CDK1/CCNB1; [2]): > 250 nM
IC50 (CDK4/CCND3; [3]): > 250 nM
IC50 (CDK6/CCND1; [4]): > 250 nM
SMILES: CS(=O)(=O)c1ccc(Nc2cc3c(C#Cc4ccc(C#N)c(F)c4F)nccc3cn2)cc1 [Ex 651, 2,3-difluoro-4-((7-((4-(methylsulfonyl)phenyl)amino)-2,6-naphthyridin-1-yl)ethynyl)benzonitrile]

IC50 (CDK2/CCNE1; [1]): < 25 nM
IC50 (CDK1/CCNB1; [2]): > 250 nM
IC50 (CDK4/CCND3; [3]): > 250 nM
IC50 (CDK6/CCND1; [4]): > 250 nM
SMILES: Cn1cc2c(Cl)c(-c3nccc4cnc(Nc5ccc(S(C)(=O)=O)cc5)cc34)ccc2n1 [Ex 655, 5-(4-chloro-2-methyl-2H-indazol-5-yl)-N-(4-(methylsulfonyl)phenyl)-2,6-naphthyridin-3-amine]

IC50 (CDK2/CCNE1; [10]): < 25 nM
IC50 (CDK1/CCNB1; [6]): > 250 nM
IC50 (CDK4/CCND3; [7]): > 250 nM
IC50 (CDK6/CCND1; [8]): > 250 nM
SMILES: Cc1c(-c2nccc3cnc(Nc4ccc(S(=O)(=O)Nc5ccc(C(F)(F)F)nn5)cc4)cc23)ccc2c1cnn2CC(C)(C)O [Ex 799, 4-((5-(1-(2-hydroxy-2-methylpropyl)-4-methyl-1H-indazol-5-yl)-2,6-naphthyridin-3-yl)amino)-N-(6-(trifluoromethyl)pyridazin-3-yl)benzenesulfonamide]

IC50 (CDK2/CCNE1; 25-250 nM marked x, read-out: CDK2/CCNE IC50 25-250 nM): 25 to 250 nM
IC50 (CDK1/CCNB1; [13]): > 250 nM
IC50 (CDK4/CCND3; [14]): > 250 nM
IC50 (CDK6/CCND1; [15]): > 250 nM
SMILES: CCC1(CC)C(=O)Nc2cc(C#Cc3nccc4cnc(Nc5ccc(S(C)(=N)=O)cc5C(F)F)cc34)ccc21 (single isomer, unassigned) [Ex 294, 6-((7-((2-(difluoromethyl)-4-(S-methylsulfonimidoyl)phenyl)amino)-2,6-naphthyridin-1-yl)ethynyl)-3,3-diethylindolin-2-one]

IC50 (CDK2/CCNE1; [10]): < 25 nM
IC50 (CDK1/CCNB1; [6]): > 250 nM
IC50 (CDK4/CCND3; [11]): 25 to 250 nM
IC50 (CDK6/CCND1; [12]): 25 to 250 nM
SMILES: Cc1c(-c2nccc3cnc(Nc4ccc(S(=O)(=O)NC5CCCN(CCO)C5)cc4)cc23)ccc2c1cnn2CC(C)(C)O (racemic) [Ex 760, 4-((5-(1-(2-hydroxy-2-methylpropyl)-4-methyl-1H-indazol-5-yl)-2,6-naphthyridin-3-yl)amino)-N-(1-(2-hydroxyethyl)piperidin-3-yl)benzenesulfonamide]

IC50 (CDK2/CCNE1; CDK2/CCNE IC50 25-250 nM, 25-250 nM marked x): 25 to 250 nM
IC50 (CDK1/CCNB1; CDK1/CCNB IC50 >250 nM, >250 nM marked x): > 250 nM
IC50 (CDK4/CCND3; CDK4/CCND IC50 25-250 nM, 25-250 nM marked x): 25 to 250 nM
IC50 (CDK6/CCND1; CDK6/CCND IC50 25-250 nM, 25-250 nM marked x): 25 to 250 nM
SMILES: CS(=O)(=O)c1ccc(Nc2cc3c(C4=CCNCC4)nccc3cn2)cc1 [Ex 146, N-(4-(methylsulfonyl)phenyl)-5-(1,2,3,6-tetrahydropyridin-4-yl)-2,6-naphthyridin-3-amine]

IC50 (CDK2/CCNE1; [16]): 25 to 250 nM
IC50 (CDK1/CCNB1; [2]): > 250 nM
IC50 (CDK4/CCND3; [3]): > 250 nM
IC50 (CDK6/CCND1; [4]): > 250 nM
SMILES: Cc1cnc(C#Cc2nccc3cnc(Nc4ccc(S(C)(=O)=O)cc4)cc23)c(C)n1 [Ex 555, 5-((3,5-dimethylpyrazin-2-yl)ethynyl)-N-(4-(methylsulfonyl)phenyl)-2,6-naphthyridin-3-amine]

IC50 (CDK2/CCNE1; [5]): 25 to 250 nM
IC50 (CDK1/CCNB1; [6]): > 250 nM
IC50 (CDK4/CCND3; [7]): > 250 nM
IC50 (CDK6/CCND1; [8]): > 250 nM
SMILES: COc1nccc(C#Cc2nccc3cnc(Nc4ccc(S(C)(=O)=O)cc4)cc23)c1C [Ex 909, 5-((2-methoxy-3-methylpyridin-4-yl)ethynyl)-N-(4-(methylsulfonyl)phenyl)-2,6-naphthyridin-3-amine]

IC50 (CDK2/CCNE1; [10]): < 25 nM
IC50 (CDK1/CCNB1; [6]): > 250 nM
IC50 (CDK4/CCND3; [11]): 25 to 250 nM
IC50 (CDK6/CCND1; [12]): 25 to 250 nM
SMILES: Cc1cnc(NS(=O)(=O)c2ccc(Nc3cc4c(-c5ccc6c(cnn6CC(C)(C)O)c5C)nccc4cn3)cc2)nc1 [Ex 896, 4-((5-(1-(2-hydroxy-2-methylpropyl)-4-methyl-1H-indazol-5-yl)-2,6-naphthyridin-3-yl)amino)-N-(5-methylpyrimidin-2-yl)benzenesulfonamide]

IC50 (CDK2/CCNE1; x = IC50 >250 nM, read-out: CDK2/CCNE IC50 (>250 nM column)): > 250 nM
IC50 (CDK1/CCNB1; [2]): > 250 nM
IC50 (CDK4/CCND3; [3]): > 250 nM
IC50 (CDK6/CCND1; [4]): > 250 nM
SMILES: Cn1cc(C2CCN(c3nccc4cnc(Nc5ccc(S(C)(=O)=O)cc5)cc34)C2)cn1 (racemic) [Ex 654, 5-(3-(1-methyl-1H-pyrazol-4-yl)pyrrolidin-1-yl)-N-(4-(methylsulfonyl)phenyl)-2,6-naphthyridin-3-amine]
